Assay [1] addresses T1, Spermidine synthase (Trypanosoma cruzi (strain CL Brener), UniProt Q4CXJ6).
T1 sequence (Q4CXJ6 whole entry): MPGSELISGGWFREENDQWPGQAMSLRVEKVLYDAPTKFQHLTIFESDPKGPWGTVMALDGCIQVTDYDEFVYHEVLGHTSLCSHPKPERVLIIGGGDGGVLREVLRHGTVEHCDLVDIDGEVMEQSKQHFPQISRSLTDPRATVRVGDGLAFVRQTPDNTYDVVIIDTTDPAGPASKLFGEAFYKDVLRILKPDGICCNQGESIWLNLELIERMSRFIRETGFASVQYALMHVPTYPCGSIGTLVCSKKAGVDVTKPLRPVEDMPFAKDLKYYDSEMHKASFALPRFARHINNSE
In words: Inhibition of Trypanosoma cruzi strain CL Brener N-terminal poly-His tagged spermidine synthase expressed in Escherichia coli BL21(DE3) using 50 uM putrescine as substrate in presence of 100 uM dcSAM incubated for 1 hr by NMR analysis based constant-time batch reaction assay.

In assay [2] the target is T1, Spermidine synthase.
Description: Inhibition of Trypanosoma cruzi strain CL Brener N-terminal poly-His tagged spermidine synthase expressed in Escherichia coli BL21(DE3) using 0.5 mM putrescine as substrate in presence of 1 mM dcSAM by FA-real time NMR analysis
Assay [3] addresses T2, Spermidine synthase (Sus scrofa, UniProt Q6QA75).
T2 sequence (Q6QA75 whole entry): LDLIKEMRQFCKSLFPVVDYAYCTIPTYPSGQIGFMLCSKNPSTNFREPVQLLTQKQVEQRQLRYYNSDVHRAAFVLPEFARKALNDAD
As to the kind of experiment: Inhibition of porcine spermidine synthase assessed as production of labeled 5'-methylthioadenosine using putrescine as substrate by enzymatic assay in presence of 10 uM decarboxylated AdoMet.

The record followed here is ChEMBL document CHEMBL3779867, “An NMR Biochemical Assay for Fragment-Based Drug Discovery: Evaluation of an Inhibitor Activity on Spermidine Synthase of Trypanosoma cruzi” (J Med Chem, 2016).

Usually IC50 stands for the concentration at which inhibition is half-maximal. For `NC1=Nc2ccccc2SC1`, the IC50 in assay [1] came out at 100 µM.

For `C[C@H]1CC[C@H](N)CC1`, the IC50 in assay [2] stood at 0.62 µM; in assay [1], 0.093 µM; in assay [3], 1.7 µM.
